Entries after “also recorded” stand apart in the source; their conditions may differ. Where two headings read alike, the source gives them in different places. Marks after values point to notes of the source that are not given here.
Key:
[1] = cited from earlier work
[2] = test system: maximal electroshock (MES) test; conditions: rat, cited from earlier work
[3] = test system: tactile allodynia in rats with SNL neuropathy; conditions: i.p., rat; literature data (footnoted); cited from earlier work
[4] = test system: tactile allodynia in rats with SNL neuropathy; assay: Tactile allodynia (von Frey filaments) in the spinal nerve ligation (SNL) model of neuropathic pain; assay type: in vivo, rat; conditions: for ED50: Rattus norvegicus, 1 h, read-out: ED50 (tactile allodynia threshold)
Protocol: The effect on neuropathic pain (tactile allodynia) was measured 5-6 days following operation as disclosed above. Rats responding to mechanical stimuli of 10 g or less (in the operated leg) were eligible for the study and were included in the drug administration regime.
Briefly, under ketamine-xylazine anesthesia the rat was placed in a prone position and the left paraspinal muscles were separated from spinous processes at the L4-S2 level. Part of the L6 transverse process was removed and the L4-L6 spinal nerves were identified. The L5-L6 spinal nerves were isolated and tightly ligated and cut, distal to the dorsal root ganglion and proximal to the formation of the sciatic nerve. Following complete homeostasis the wound was sutured.
A volume of 4 ml/kg (volume of injected suspension/rat body weight) was then injected to the rats. […] The three drugs and the control vehicle were administered i.p. (intraperitoneally) to rats at postoperative days 7, 14 and 21 in a double blind randomized crossover manner.
The rat was placed on a metal mesh floor covered with a transparent plastic dome, a period of acclimatization was allowed prior to testing. VFFs were applied from underneath the mesh floor to the plantar surface of the foot. Each trial consisted of repeated applications of each of the VFFs in an ascending order for 5 times, each for a period of 1 second. testing between two consecutive ascending VFFs was separated by period of 2 min. If the rat withdrew the foot at least 3 times out of 5 at a specific VFF no further ascending filaments were tested and this filament was considered as a withdrawal threshold (response). Mechanical stimulus trials with the series of ascending VFF were repeated 2 times for a given time point. The repeated measurements were averaged and taken as the paw withdrawal threshold on a given time point.
The absolute threshold and the difference in the allodynic threshold (time point minus baseline) values were tested using Mann-Whitney Test and Kruskal-Wallis Nonparametric test (two tailed) followed by Dunn's Multiple comparison test. The ED50 (median effective dose) was calculated by using Probit analysis method.
Briefly, under ketamine-xylazine anesthesia (85 mg kg^−1, i.p and 13 mg kg^−1, i.p, respectively) rats were placed in a prone position and paraspinal muscles on the left were separated from the L4-S2 spinous processes. Part of the L6 transverse process was removed and the underlying L4-L6 spinal nerves were identified. The L5 and L6 spinal nerves were isolated, tightly ligated with 5-0 silk, and cut just distal to the ligature. The ligature was approximately 8 mm distal to the corresponding dorsal root ganglion (DRG). Following complete homeostasis the wound was sutured in layers, the skin closed with Michel clips, topical bacteriostatic power was applied, and 20000 units of duplo-penicillin was injected intramuscularly (i.m.).
We used a set of 9 nylon von Frey monofilaments (VFF, Semmes-Weinstein monofilaments, Stoelting, Wood Dale, Ill., USA) to quantify foot withdrawal in response to normally innocuous tactile stimuli. […] Forces were calibrated by lowering filaments onto the pan of an electronic balance until they just bent.
Rats were placed on a raised wire mesh screen (gaps 4 mm×4 mm), which allowed access to the plantar surface of the hindpaw from below. They were covered with a transparent plastic dome, 13 cm high, which prevented rearing on the hindlimbs. A period of 20 min was allowed for acclimation prior to sensory testing. The mid-plantar hindpaw skin just caudal to the footpads, half way between medial and lateral edges of the foot, was subjected to a series of 5 brief probes, spaced at about 1 s. Each such stimulus was sufficient to just bend the filament. Testing began with the filament with the weakest initial bending force (0.6 g). […] Response threshold was the bending force of the first monofilament in the series that evoked a criterion ≧⅗ responses.

[5] = test system: neural tube defects (NTDs); conditions: cited from earlier work
[6] = test system: maximal electroshock (MES) test; assay: Anticonvulsant activity, maximal electroshock (MES) test; assay type: in vivo; conditions: different study, data not shown
From the text: Pain 73, 223-230); Blom, 1962 (BLOM, S. (1962). Trigeminal neuralgia: its treatment with a new anticonvulsant drug. Lancet; 1, 839-840); Rogawski & Loscher, 2004b (ROGAWSKI, M. A., & LOSCHER, W. (2004b). The neurobiology of antiepileptic drugs for the treatment of nonepileptic conditions. Nat. Med., 10, 685-692)). The availability of ED50 data for a series of new anticonvulsant isomers and analogues of VPD (valpromide) provides an opportunity for testing this hypothesis. […] Philadelphia: Lippincott Williams & Wilkins)).

[7] = test system: motor performance (rotarod test); assay: Neurological motor dysfunction tests (accelerating rotarod, observation for sedation)
Protocol: On the day of testing, a baseline response was obtained, and rats were subsequently administered drug or vehicle. […] In addition, we examined our rats individually for signs of motor dysfunction and sedation as assessed by posture and gate during spontaneous and induced movement, grooming, chewing, stepping reflex, and startle reflex evoked by tapping on the cage.
For each drug and dose, attenuation of tactile allodynia (threshold measured in g) was measured. […] These areas under the response curve values for every group of rats per dose were evaluated against vehicle treatment using the nonparametric Wilcoxon one tailed test (dose of drug tested vs. vehicle on the same treatment). […] A p value <0.05 was considered statistically significant.

[8] = p.o., taken from previous studies
[9] = i.p., rat, 60 min post injection, DID at 120 min

SMILES: NC(=O)N1c2ccccc2C=Cc2ccccc21 [CBZ, carbamazepine]
- Brain-to-plasma ratio ([1]; literature data): 1.0^i
- MES-ED50 [2, 8]: 5.4^a mg kg^−1
- SNL-ED50 [3]: >30^c mg kg^−1

SMILES: CC(C)C(C(=O)O)C(C)C [DIA, diisopropylacetic acid]
- antiallodynic effect / effectiveness for treating neuropathic pain ([4]; rat, in vivo): effective for treating neuropathic pain
- SNL-ED50 ([4]; rat, in vivo, ip): >300 mg/kg
- lowest effective dose (significant increase of the allodynic threshold vs vehicle) ([4]; rat, in vivo, ip): 300 mg/kg
- rats regarded as protected at the highest dose ([4]; rat, in vivo, ip): 25%

SMILES: NC(=O)OCC(COC(N)=O)c1ccccc1 [FBM, felbamate]
- Brain-to-plasma ratio ([1]; literature data): 0.64^f
- MES-ED50 [2, 8]: 25.3^a mg kg^−1
- SNL-ED50 [3]: >600^d mg kg^−1

SMILES: NCC1(CC(=O)O)CCCCC1 [GBP, gabapentin]
- Brain-to-plasma ratio ([1]; rat, in vivo): 0.85^e
- MES-ED50 ([2]; in vivo, po): 14.8^a mg kg^−1
- SNL-ED50 [3]: 34^d mg kg^−1

SMILES: Nc1nnc(-c2cccc(Cl)c2Cl)c(N)n1 [LTG, lamotrigine]
- Brain-to-plasma ratio ([1]; literature data): 0.4^h
- MES-ED50 [2, 8]: 1.3^a mg kg^−1
- SNL-ED50 [3]: >100^d mg kg^−1

SMILES: CNC(=O)C1C(C)(C)C1(C)C [M-TMCD, N-methyl-2,2,3,3-tetramethylcyclopropanecarboxamide]
- ED50 ([4]; ip): 41 mg/kg
- antiallodynic effect / effectiveness for treating neuropathic pain ([4]; rat, in vivo): effective for treating neuropathic pain
- dose dependence of the antiallodynic effect ([4]; rat, in vivo, ip): in a dose dependent manner
- time of maximal effect after administration ([4]; rat, in vivo, ip): 60 min
- teratogenicity ([5]; in vivo): lack of teratogenicity

SMILES: CCCC(CCC)C(=O)NC [MVPD, N-methyl-valpromide, reference compound]
- SNL-ED50 [4, 9]: >120 mg/kg
- MES-ED50 [2, 8]: 65 mg/kg

SMILES: CC1(C)C(C(=O)O)C1(C)C [TMCA, 2,2,3,3-tetramethylcyclopropanecarboxylic acid]
- antiallodynic effect / effectiveness for treating neuropathic pain ([4]; SNL model, rat): exhibit antiallodynic effect
- anticonvulsant activity in the rat-MES test [6]: without any anticonvulsant activity

SMILES: CC1(C)C(C(N)=O)C1(C)C [TMCD, 2,2,3,3-tetramethylcyclopropanecarboxamide]
- ED50 ([4]; ip): 84.5 mg/kg
- antiallodynic effect / effectiveness for treating neuropathic pain ([4]; rat, in vivo): exhibit antiallodynic effect; also recorded: effective for treating neuropathic pain
- dose dependence of the antiallodynic effect ([4]; rat, in vivo, ip): in a dose dependent manner
- time of maximal effect after administration ([4]; rat, in vivo, ip): 60 min
- anticonvulsant activity in the rat-MES test [6]: without any anticonvulsant activity

SMILES: CCC(C)C(CC)C(=O)O (stereo not shown) [VCA, 2-ethyl-3-methyl-pentanoic acid]
- SNL-ED50 [4, 9]: >300 mg/kg

SMILES: CCC(C)C(CC)C(N)=O (stereo not shown) [VCD, 2-ethyl-3-methyl-pentanoic acid amide]
- ED50 ([4]; ip): 52.3 mg/kg
- dose dependence of the antiallodynic effect ([4]; i.p., rat): in a dose dependent manner
- antiallodynic effect / effectiveness for treating neuropathic pain ([4]; rat, in vivo): effective for treating neuropathic pain
- SNL-ED50 ([4]; rat, in vivo, ip): 52 mg/kg
- time of maximal effect after administration ([4]; rat, in vivo, ip): 60 min
- neurological motor dysfunction or sedation at the highest drug dose tested ([7]; highest drug dose tested, normal rats): not sufficient to cause neurological motor dysfunction or sedation
- teratogenicity ([5]; literature): distinctly less teratogenic than VPA
- MES-ED50 [2, 8]: 29^c mg kg^−1

SMILES: CCCC(CCC)C(N)=O [VPD, valpromide, reference compound]
- SNL-ED50 [4, 9]: 61 mg/kg
- Brain-to-plasma ratio ([1]; literature data): 0.84^c
- neurological motor dysfunction or sedation at the highest drug dose tested ([7]; rat, in vivo): not sufficient to cause neurological motor dysfunction or sedation
- MES-ED50 [2, 8]: 32^b mg kg^−1

— patent US20100160443A1, “COMPOUNDS USEFUL FOR TREATING NEUROLOGICAL DISORDERS” (Yissum Research Development Company of The Hebrew …, priority 2003, published 2010)
